Assay results as given in publication PMC12662248 (ADMET & DMPK, 2025).
“Also recorded” adds a separate entry of the source. Where two headings read alike, the source gives them in different places.

Columns and labels:
[1] = system: plateable monkey hepatocytes; experiment: Metabolite identification in plateable monkey hepatocytes; format: in vitro ADME; conditions: 10 μM metoprolol, 72 hours
Method: (§1) Cryopreserved rat, dog, monkey and human hepatocytes were thawed by immersing vials in a pre-warmed 37 °C water bath. The cell pellets were then transferred to thawing medium and centrifuged to isolate viable cells. Then, hepatocytes were diluted to 0.7 million cells mL^-1 and seeded into collagen-coated 48-well plates (0.2 mL per well) in duplicate. After 6 hours of attachment, the plating medium was replaced with incubation medium containing 1 % Matrigel™. […] Reactions were quenched at 72 hours with cold acetonitrile containing 0.1 % formic acid, and supernatants were dried under nitrogen gas. The residues were reconstituted in acetonitrile/water (1:9 volume ratio) with 0.1 % formic acid and analysed LC-HRMS. The M7 metabolite was isolated, purified, and concentrated via a mass spectrometry switching valve, followed by sample reconstitution, and subsequent analysis on LC-HRMS.
(§2) The maximum injection time was limited to 50 ms.
(§3) Hepatocyte viability data was expressed as mean±SD.

recombinant 2D6 enzymes [2] = target: T1, recombinant 2D6 enzymes (Homo sapiens, UniProt P10635); conditions: 60 min, 1 μM
T1 sequence (P10635 whole entry): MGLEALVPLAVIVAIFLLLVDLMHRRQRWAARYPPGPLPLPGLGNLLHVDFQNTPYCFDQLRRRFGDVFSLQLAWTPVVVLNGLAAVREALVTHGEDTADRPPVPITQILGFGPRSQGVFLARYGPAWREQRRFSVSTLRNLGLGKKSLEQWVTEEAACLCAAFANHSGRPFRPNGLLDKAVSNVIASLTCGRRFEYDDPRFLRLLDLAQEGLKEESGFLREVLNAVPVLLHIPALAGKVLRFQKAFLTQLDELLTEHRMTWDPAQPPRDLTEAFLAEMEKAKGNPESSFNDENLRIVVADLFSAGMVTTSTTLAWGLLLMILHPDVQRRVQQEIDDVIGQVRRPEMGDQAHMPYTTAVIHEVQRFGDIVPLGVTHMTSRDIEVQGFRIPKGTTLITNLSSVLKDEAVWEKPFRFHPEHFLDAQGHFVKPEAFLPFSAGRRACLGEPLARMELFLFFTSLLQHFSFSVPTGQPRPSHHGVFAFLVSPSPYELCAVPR
Method: (§5) Human recombinant cytochrome 2D6 enzymes were diluted to 50 pmol mL^-1 in 50 mM phosphate buffer. […] Reactions were initiated by adding NADPH (final concentration: 1 mM), and aliquots were collected at 60 min. Samples were quenched with cold acetonitrile containing 0.1 % formic acid, centrifuged (12,000g, 15 min, 4 °C), then supernatants were dried, reconstituted, centrifuged (12,000g, 15 min, 4 °C), and subjected to an analysis on LC-HRMS..
(§6) Qualitative LC-HRMS analysis was conducted using an Ultimate 3000 pump (ThermoFisher, Germany) and a Q-Exactive Plus spectrometer. The mobile phase A was distilled water containing 0.1 % formic acid and the mobile phase B was acetonitrile containing 0.1 % formic acid. The liquid chromatography (LC) gradient spanned 22 min: 0 to 1.0 minute at 5 % B; 1.0 to 6.0 min, 5 to 15 % B; 6.0 to 14.0 mi, 15 to 25 % B; 14.0 to 16.0 min, 25 to 90 % B; 16.0 to 18.0 min, 90 to 95 % B; 18.0 to 20.0 min, 95 to 5 % B; and 20.0 to 22.0 min at 5 % B (flow rate: 0.3 mL min^-1). MS parameters included: spray voltage: 3.8 kV, capillary temperature: 320 °C, heater temperatures: 350 °C, sheath gas: 2.76 MPa, auxiliary nitrogen pressures: 0.7 MPa and tube lens voltage: 10 eV. The full scan Q1 resolution was set to 70,000, and the automatic gain control (AGC) target value was set to 5×10^5 intensity. The maximum injection time was limited to 50 ms. The dd-MS^2 resolution was set at 17,500, with the AGC target set at 5×10^4. External calibration was performed, yielding a deviation of less than 5.0 ppm. Data was processed using Xcalibur 4.1.31.9 software (ThermoFisher, Germany; https://www.thermofisher.com/order/catalog/product/OPTON-30965).
(§7) LC-HRMS raw data was extracted with Xcalibur, and metabolites were identified using Compound Discoverer 3.0 (ThermoFisher, Germany; https://www.thermofisher.com/order/catalog/product/OPTON-31061) by comparing fragment patterns between parent compounds, metabolites, and standards.

[3] = system: plateable dog hepatocytes; experiment: Metabolite identification in plateable dog hepatocytes; format: in vitro ADME; conditions: 10 μM metoprolol, 72 hours
Method: as §1, §2, §3

[4] = system: plateable rat hepatocytes; experiment: Metabolite identification in plateable rat hepatocytes; format: in vitro ADME; conditions: 10 μM metoprolol, 72 hours
Method: as §1, §2, §3

[5] = system: plateable human hepatocytes; experiment: Metabolite identification in plateable human hepatocytes; format: in vitro ADME; conditions: 10 μM metoprolol, 72 hours
Method: as §1, §2, §3

recombinant 2D6 enzymes [6] = target: T1, recombinant 2D6 enzymes; experiment: Metabolite identification in recombinant cytochrome 2D6 enzymes; conditions: human recombinant 2D6 enzymes, 1 μM metoprolol, 60 min
Method: as §5, §6, §7

[7] = system: plateable human hepatocytes; conditions: cited from earlier work
[8] = system: plateable human hepatocytes; experiment: Plateable hepatocytes cytotoxicity (CellTiter-Glo ATP assay), human; format: cell-based; conditions: 0 to 500 μM, 48 hours, regardless of ABT co-treatment
Method: (§4) Cryopreserved plateable rat and human hepatocytes were thawed by immersing vials in a pre-warmed 37 °C water bath. The cell pellets were then transferred to thawing medium and centrifuged to isolate viable cells. […] Prior to the measurement, the cell culture plate was equilibrated to ambient temperature. Subsequently, 100 μL of CellTiter-Glo® reagent was dispensed into each well, followed by orbital shaking (5 min) to ensure complete cell lysis. After a 10-minute stabilization at room temperature, luminescence signals were quantified using an envision® multilabel plate reader.

[9] = system: plateable rat hepatocytes; experiment: Plateable hepatocytes cytotoxicity (CellTiter-Glo ATP assay), rat; format: cell-based; conditions: 48 hours; for cytotoxicity in rat hepatocytes (words): 0 to 500 μM
Method: as §4

[10] = system: plateable human hepatocytes; experiment: Plateable hepatocytes stability (metoprolol depletion); format: in vitro ADME
Method: Cryopreserved human hepatocytes were thawed by immersing vials in a pre-warmed 37 °C water bath. The cell pellets were then transferred to thawing medium and centrifuged to isolate viable cells. […] Aliquots were collected at 0, 2, 4, 8, 24, 48 and 72 hours, and reactions were quenched with cold acetonitrile/methanol (1:1, v/v) containing labetalol (100 ng mL^-1). After centrifugation (12,000g, 15 min, 4 °C), supernatants were analysed via LC-30AD-API5500 (LC-MS/MS, SCIEX, USA) for semiquantitative assessment. […] Hepatocyte viability data was expressed as mean±SD.

| SMILES | Relative peak area, plateable hepatocytes, Mk [1] [%] | Relative peak area, 2D6, H (recombinant 2D6 enzymes [2]) [%] | Relative peak area, plateable hepatocytes, D [3] [%] | Relative peak area, plateable hepatocytes, R [4] [%] | Relative peak area, plateable hepatocytes, H [5] [%] | further results |
| --- | --- | --- | --- | --- | --- | --- |
| NCC(O)COc1ccc(CCO)cc1 (centres unmarked) [M3] | 0.1 | 1.6 | 0.7 |  |  |  |
| CC(C)NCC(O)COc1ccc(C(=O)O)cc1 (centres unmarked) [M9] | 0.2 | 1.7 |  | 0.4 |  |  |
| COCC(O)c1ccc(OCC(O)CNC(C)C)cc1 (stereo not drawn) [M10, α-hydroxy-metoprolol] | 5.6 | 20.1 | 9.4 | 24.4 | 2.7 |  |
| CC(C)NCC(O)COc1ccc(CCO)cc1 (centres unmarked) [M13, O-desmethyl-metoprolol] | 0.1 | 22.8 | 20.5 | 3.8 | 6.0 |  |
| CC(C)NCC(O)COc1ccc(CC(=O)O)cc1 (centres unmarked) [M17, metoprolol acid] | 82.6 |  | 19.9 | 57.2 | 14.6 | Relative peak area, 2D6, H (recombinant 2D6 enzymes [6]): 18.3% |
| COCCc1ccc(OCC(O)CN)cc1 (centres unmarked) [M18] |  | 6.4 | 5.8 | 0.1 |  |  |
| COCCc1ccc(OCC(O)CNC(C)C)cc1 (centres unmarked) [metoprolol, Metoprolol] |  |  |  |  |  | in vivo clearance ([7]; correlating with plateable human hepatocyte clearance): 1.4 mL/min/kg; clearance in hepatocytes ([7]; previously reported): 4.28 μL min^-1 per million cells; clearance in plateable human hepatocytes ([7]; previously reported): 2.2 ± 0.7 μL min^-1 per million cells; cytotoxicity in human hepatocytes (words) [8]: No significant reduction in cell viability; also recorded: no significant hepatotoxicity; cytotoxicity in human hepatocytes (words) ([8]; listed as Metoprolol): no observable cytotoxicity; cytotoxicity in rat hepatocytes (words) ([9]; without ABT): weak cytotoxicity; also recorded: weak hepatotoxicity; cytotoxicity in rat hepatocytes (words) ([9]; without ABT, listed as Metoprolol): cytotoxic only at a concentration of 500 μM; effect of ABT pre-treatment on metoprolol cytotoxicity ([9]; rat hepatocytes, 500 μM metoprolol with 50 μM ABT): reversed the cytotoxic effect; reductions in cell viability ([9]; rat hepatocytes, 500 μM metoprolol, without ABT): > 30%; in vivo CLint ([10]; extrapolated from plateable human hepatocyte CLint): 1.59 ± 0.31 mL/min/kg; in vitro intrinsic clearance (CLint) ([10]; plateable human hepatocytes, 1 μM, 72-hour incubation): 0.56±0.12 μL min^-1 per million cells |
